Measured values as given in patent publication US20260183304A1, “COMBINATION OF A TYROSINE KINASE INHIBITOR AND A PRO-INFLAMMATORY AGENT FOR TREATING CANCER” (MDX Management LLC, priority 2022, published 2026).

How the values were obtained:
macrophages [1] = experiment: Macrophage expression of cell surface antigen presentation machinery with αTLR and cancer cell ligation; assay type: cell-based, human and murine; settings: αTLR-induced, in presence of cancer cell ligation
Method: (§1) After incubation for 15 minutes at 37° C., cells were gently washed to remove the majority of SW620, followed by lysis of macrophage using Hank's buffer (pH 7.2) containing 1% Triton and 1 mM PMSF. Protein tyrosine phosphatase (PTP) activity was assayed with […] Hank's buffer at 37° C.
(§2) In vitro assays. Macrophage response to αTLR was assayed in the presence of cancer cell ligation and with or without TK inhibitor. Macrophage SHP-1 activity (PTP activity), macrophage expression of antigen presentation machinery and proinflammatory cytokines were assayed.
(§3) The same in vitro macrophage stimulation in the present of cancer cell ligation experimental system as in Example 1 was used.

LLC lung cancer = experiment: LLC tumor treatment and TME analyses; assay type: in vivo, mice; settings: combined with αTLR
Method: Three types of solid tumors were tested: 1) MC38 colorectal carcinoma, 2) KPC pancreatic ductal adenocarcinoma, and 3) LLC lung cancer. Tumors were subcutaneously engrafted (s.c.), and treatments started when palpable tumors formed >=200 mm^3. […] In most experiments, TKi and αTLR agonist were together suspended in 500 μl PBS and administered via s.c. at a location distant form tumor. The intermittent treatment scheme was designed to administrate the first cycle, 2× pulse administrations (d1 and d2), an intermittent period (3-7 days), followed by a second cycle treatment.
In vivo tests for anti-tumor efficacy.

[2] = system: macrophage SHP-1 activity; experiment: Macrophage SHP-1 (PTP) activity induced by αTLR and cancer cell ligation; assay type: cell-based, human; settings: induced by αTLR (CpG, PolyIC, R848) and SW620 cancer cell ligation
Method: . After incubation for 15 minutes at 37° C., cells were gently washed to remove the majority of SW620, followed by lysis of macrophage using Hank's buffer (pH 7.2) containing 1% Triton and 1 mM PMSF. Protein tyrosine phosphatase (PTP) activity was assayed with […] Hank's buffer at 37° C.
as §2, §3
Specifically, an in vitro macrophage functional assay was set up in the presence of cancer cell (SW620) ligation of macrophage iRs. […]. In vivo anti-tumor efficacies with the combination of αTLR were shown in (FIG. 9C).

macrophages [3] = experiment: Macrophage proinflammatory cytokine production with αTLR and cancer cell ligation; assay type: cell-based, human and murine; settings: αTLR-induced, in presence of cancer cell ligation
Method: as §1, §2, §3

c-Src = c-Src (Homo sapiens, UniProt P12931); settings: information vendor provided; cited from earlier work
c-Src, sequence (P12931 whole entry): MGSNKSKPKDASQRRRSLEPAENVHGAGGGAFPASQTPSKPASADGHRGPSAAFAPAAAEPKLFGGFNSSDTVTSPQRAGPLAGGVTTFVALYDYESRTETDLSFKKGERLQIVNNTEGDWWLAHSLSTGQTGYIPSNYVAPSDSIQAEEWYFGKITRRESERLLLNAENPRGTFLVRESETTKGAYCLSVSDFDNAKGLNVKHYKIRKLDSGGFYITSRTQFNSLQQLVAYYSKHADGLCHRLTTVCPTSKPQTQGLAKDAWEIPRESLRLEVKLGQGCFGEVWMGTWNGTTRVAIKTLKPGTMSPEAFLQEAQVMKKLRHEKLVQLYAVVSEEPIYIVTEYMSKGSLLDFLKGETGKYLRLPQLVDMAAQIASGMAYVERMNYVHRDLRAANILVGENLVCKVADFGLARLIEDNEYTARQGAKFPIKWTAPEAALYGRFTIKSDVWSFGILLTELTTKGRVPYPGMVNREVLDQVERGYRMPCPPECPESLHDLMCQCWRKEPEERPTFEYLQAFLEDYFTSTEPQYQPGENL

Lck = Lck (Homo sapiens, UniProt P06239); settings: information vendor provided; cited from earlier work
Lck, sequence (P06239 whole entry, species assumed): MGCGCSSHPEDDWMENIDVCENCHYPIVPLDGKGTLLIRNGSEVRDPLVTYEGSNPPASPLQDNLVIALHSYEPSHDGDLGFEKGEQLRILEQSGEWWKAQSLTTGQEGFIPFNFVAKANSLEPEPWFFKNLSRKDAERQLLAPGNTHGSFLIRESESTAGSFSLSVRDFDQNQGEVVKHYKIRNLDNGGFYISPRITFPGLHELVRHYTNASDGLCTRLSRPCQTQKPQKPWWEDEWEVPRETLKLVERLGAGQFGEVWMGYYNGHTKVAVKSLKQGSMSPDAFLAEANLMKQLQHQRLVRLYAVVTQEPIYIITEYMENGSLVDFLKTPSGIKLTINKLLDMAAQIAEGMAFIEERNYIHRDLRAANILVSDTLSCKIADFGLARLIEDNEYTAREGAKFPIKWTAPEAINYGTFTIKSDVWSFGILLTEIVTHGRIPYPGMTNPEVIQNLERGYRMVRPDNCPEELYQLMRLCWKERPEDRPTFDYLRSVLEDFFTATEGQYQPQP

Lyn = Lyn (Homo sapiens, UniProt P07948); settings: information vendor provided; cited from earlier work
Lyn, sequence (P07948 whole entry, species assumed): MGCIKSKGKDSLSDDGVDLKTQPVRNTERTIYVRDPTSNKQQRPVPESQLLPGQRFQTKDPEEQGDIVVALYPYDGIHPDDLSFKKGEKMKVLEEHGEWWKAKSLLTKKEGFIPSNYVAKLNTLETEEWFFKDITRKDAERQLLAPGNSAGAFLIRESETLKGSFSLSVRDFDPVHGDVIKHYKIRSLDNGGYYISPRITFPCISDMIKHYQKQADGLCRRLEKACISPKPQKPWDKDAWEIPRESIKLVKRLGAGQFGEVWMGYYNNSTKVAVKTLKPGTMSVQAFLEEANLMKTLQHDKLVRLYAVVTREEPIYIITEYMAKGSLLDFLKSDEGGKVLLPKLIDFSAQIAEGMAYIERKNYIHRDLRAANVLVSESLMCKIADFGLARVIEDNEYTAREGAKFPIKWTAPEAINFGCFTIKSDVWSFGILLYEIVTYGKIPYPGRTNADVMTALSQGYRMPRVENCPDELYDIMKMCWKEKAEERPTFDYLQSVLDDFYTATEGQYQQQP

[4] = system: MC38, KPC and LLC tumor models; experiment: Syngeneic murine tumor models, TKi alone or with proinflammatory activators; assay type: in vivo, mice; settings: for anti-tumor efficacy, alone/monotherapy: TKi alone
SIRPα and PirB = experiment: iR phosphorylation and binding to SHP-1 in bone-marrow-derived macrophages; settings: TLR agonist- and cancer ligation-induced, murine bone-marrow-derived macrophages
SIRPα = SIRPα ITIMs phosphorylation and SHP-1 association in macrophages activated by proinflammatory stimuli; assay type: cell-based; settings: macrophage activation by proinflammatory stimuli or cancer therapies
Source text: As shown, proinflammatory stimuli (TLR agonists, proinflammatory cytokines IL-1β, IL-6, IL-12, IL-17, IL-18, TNFα, IFNγ, etc., and cancer therapies) induce SIRPα ITIMs phosphorylation and exclusive association of SHP-1 (not SHP-2). Anti-inflammatory cytokine stimulation also induces SIRPα ITIMs phosphorylation but association with SHP-2.

[5] = system: TLR7/8 overexpressing pancreatic cancer cell line; settings: R848-stimulation; cited from earlier work
[6] = system: malignant melanoma and advanced malignancies; settings: Phase I, cited from earlier work

SMILES	expression of cell surface antigen presentation machinery (macrophages [1])	suppression of LLC tumor (LLC lung cancer)	macrophage SHP-1 activity (PTP activity) [2]	production of proinflammatory cytokines (TNFα, IL-6, CXCL1) (macrophages [3])	SIRPα cytoplasmic ITIMs phosphorylation and SIRPα association with SHP-1 (SIRPα)	further results
COc1cc(Nc2ncc(F)c(Nc3ccc4c(n3)NC(=O)C(C)(C)O4)n2)cc(OC)c1OC [R406]	elevated	effectively suppressed	capability of diminishing	Neither UM164 nor R406 enabled		intratumoral CD8+ T cell expansion (LLC lung cancer): induced intratumoral CD8+ T cell expansion; intratumoral macrophage antigen presentation (LLC lung cancer): induced intratumoral macrophages for antigen presentation
Cc1nc(Nc2ncc(C(=O)Nc3cc(NC(=O)c4cccc(C(F)(F)F)c4)ccc3C)s2)cc(N2CCN(CCO)CC2)n1 [UM-164]	elevated	not	capability of diminishing	Neither UM164 nor R406 enabled		IC50 (c-Src): 2.7 nM
CC(C)CCC[C@@H](C)[C@H]1CC[C@H]2[C@@H]3CCC4C[C@H](N)CC[C@]4(C)[C@H]3CC[C@]12C (stereo partly drawn) [3Ac]		not				
CN1CCN([C@H]2CC[C@H](n3cc(-c4ccc(Oc5ccccc5)cc4)c4c(N)ncnc43)CC2)CC1 [RK-20449, 7-((1R,4R)-4-(4-methylpiperazin-1-yl)cyclohexyl)-5-(4-phenoxyphenyl)-7H-pyrrolo[2,3-d]pyrimidin-4-amine]	marked increases		dose-dependently diminished	marked increases		IC50 (Lck): < 3 nM; IC50 (Lyn): < 3 nM; anti-tumor efficacy, alone/monotherapy [4]: not effective; iR phosphorylation and binding to SHP-1 (SIRPα and PirB): depleted
C/C(O)=C(\C#N)C(=O)Nc1cc(Br)ccc1Br [LFMA-13]					not	
CCOCc1nc2c(N)nc3ccccc3c2n1CC(C)(C)O [R848]						cell proliferation [5]: increased; chemosensitivity [5]: reduced
CC(C)(C)n1nc(-c2ccc(Cl)cc2)c2c(N)ncnc21 [PP2]					diminished	
O.O.O.O.O.O.O.O.O.O=C([O-])[C@@H]1[O][Sb]2([O-])([O][Sb]34([OH])[O][C@H]([C@H](O)CO)[C@H]([O]3)[C@H](C(=O)[O-])[O]4)[O][C@H]([C@H](O)CO)[C@@H]1[O]2.[Na+].[Na+].[Na+] [SSG, sodium stibogluconate]						effect against tumor development ([6]; in combination with interferons followed or not by chemotherapy): no effect; patients with most common toxic side-effects [6]: up to 68%
Cc1nc(Nc2ncc(C(=O)Nc3c(C)cccc3Cl)s2)cc(N2CCN(CCO)CC2)n1 [Dasatinib, N-(2-chloro-6-methylphenyl)-2-[[6-[4-(2-hydroxyethyl)-1-piperazinyl]-2-methyl-4-pyrimidinyl]amino]-5-thiazole carboxamide monohydrate]	marked increases		dose-dependently diminished	marked increases		anti-tumor efficacy, alone/monotherapy [4]: not effective; angiogenesis in tumors ([4]; mouse, in vivo): inhibits; iR phosphorylation and binding to SHP-1 (SIRPα and PirB): depleted; TME immune populations (CD8+ T cells, NK cells, macrophages, MDSC) (LLC lung cancer; LLC tumors, 3-day post treatment, various doses): dose-dependent effect of elevating CD8+ T cells and NK cells and reducing macrophages and MDSC
Cc1ccc(-c2nn(C(C)(C)C)c3ncnc(N)c23)cc1 [PP1]					diminished	
